# Patent publication US20240279288A1, “APPLICATION OF PLANT JAZ PROTEINS AND DERIVED POLYPEPTIDES IN PREVENTION AND TREATMENT OF HUMAN AND ANIMAL TUMORS” (ANYANG INSTITUTE OF SINO-COTTON INDUSTRY INNOVATION, priority 2021, published 2024)
# What was measured:
# [1] = tested on: callus of cotton "CCRI 24"; test: Growth of cotton callus on medium with JA synthesis inhibitor; conditions: DIECA 200, 400, 800 μM or ibuprofen 20, 40, 80 μM in callus induction medium; hypocotyl explants
# Procedure: (§1) Explants from “CCRI 24” were cut to consistent length and placed under the same conditions for cultivation. After one month, the growth of callus was observed and photographed with a camera and microscope. Statistics on the weights of callus and measurement of JA content were performed.
# [2] = tested on: JA content of callus of cotton "CCRI 24"; test: JA content in cotton callus (HPLC); conditions: DIECA 200, 400, 800 μM or ibuprofen 20, 40, 80 μM in callus induction medium
# Procedure: as §1
# [3] = tested on: cell cycle-related genes of callus; test: Fluorescence quantitative PCR of cell cycle-related genes in cotton callus; conditions: DIECA 200, 400, 800 μM or ibuprofen 20, 40, 80 μM in callus induction medium
# Procedure: Identification at the RNA level: RNA was extracted using RNA extraction kit (RNAprep Pure Polysaccharide Polyphenol Plant Total RNA Extraction Kit (DP441), manufacturer: TIANGEN BIOTECH (BEIJING) CO., LTD.), and then cDNA was obtained using two-step reverse transcription kit (a third-generation premix for two-step de-genomization and reverse transcription, Cat. No.: MR05201). cDNA as a template was added into a 96-well plate, with addition of SYBR®Green I chimeric dye (an antibody dye quantitative PCR premix, Cat. No.: MQ10101) and gene primers for three-step qPCR amplification. Finally, the relative gene expression was calculated based on the Ct value.
# The steps of RNA extraction, reverse transcription, and fluorescence quantitative PCR were the same as above, and the sequences of primers were as follows: […]
# as §1
# [4] = tested on: MCF7 cells; test: Detection of GhJAZ1 protein entry into the nucleus, fluorescence microscope; format: cell-based, human; conditions: 0.5 μM
# From the text: In order to explore how GhJAZ1 enters cancer cells, we cloned the genes of most tumor surface receptors, including uPAR (NCBI database accession number of NM_002659.4), CCK1R (NP_000721.1), CCK2R (NP_001350481.1), HER2 (NP_004439.2), GRPR (NP_005305.1), MUC1 (NP_001358649.1), VEGFR1 (NP_002010.2), Insulin receptor (NM_000208.4), NTR (XM_011528827.2), PSMA (XM_017017432.1), TFR1 (NM_001128148.3), TFR2 (NM_003227.4), PEPT1 (NM_005073.4), APN (NM_001150.3). The receptor proteins that interact with GhJAZ1 were then screened by yeast two hybrid (the steps of the experiment as Example 3). […] We detected the interaction of GhJAZ1 with uPA (as the ligand of uPAR, NCBI database accession number of NP_002649.2) and uPAR by yeast two hybrid (the steps of the experiment as Example 3). […] GhJAZ1+RFP (the amino acid sequence set forth in SEQ ID No. 81, corresponding encoding gene sequence set forth in SEQ ID No. 82) was ligated to pET-30a (+) vector (YouBio, Cat. No.: VT1212) between NdeI and HindIII, and GhJAZ1+RFP protein with red fluorescence was prokaryotically expressed and purified (the step of method as step 2 in Example 4) (A in FIG. 11), and then MCF7 cells were treated with GhJAZ1+RFP protein and observed by a fluorescence microscope.
Molecule,growth of callus of cotton [1],JA content of callus [2],cell cycle-related genes of callus [3],entry into the nucleus of MCF7 cells (red fluorescence merged with blue nuclear fluorescence) [4]
CCN(CC)C(=S)[S-].[Na+] [DIECA],significantly inhibit,significantly decreased,marked changes,
CC(C)Cc1ccc(C(C)C(=O)O)cc1 (stereo not shown) [ibuprofen],significantly inhibit,significantly decreased,marked changes,
"GhJAZ1+RFP: GhJAZ1 fused with RFP, red fluorescence, amino acid sequence SEQ ID No. 81",,,,entered the nucleus
